Like-named read-outs stand apart in the source and are kept apart here.
Tests used:
Test in all cases: Ambit kinase profiling, competition binding
ACVR1B = biological target: T1, ACVR1B (Homo sapiens, UniProt P36896)
T1 construct: purchased Ambit Biosciences (KINOMEscan)
T1 sequence (P36896 24-505): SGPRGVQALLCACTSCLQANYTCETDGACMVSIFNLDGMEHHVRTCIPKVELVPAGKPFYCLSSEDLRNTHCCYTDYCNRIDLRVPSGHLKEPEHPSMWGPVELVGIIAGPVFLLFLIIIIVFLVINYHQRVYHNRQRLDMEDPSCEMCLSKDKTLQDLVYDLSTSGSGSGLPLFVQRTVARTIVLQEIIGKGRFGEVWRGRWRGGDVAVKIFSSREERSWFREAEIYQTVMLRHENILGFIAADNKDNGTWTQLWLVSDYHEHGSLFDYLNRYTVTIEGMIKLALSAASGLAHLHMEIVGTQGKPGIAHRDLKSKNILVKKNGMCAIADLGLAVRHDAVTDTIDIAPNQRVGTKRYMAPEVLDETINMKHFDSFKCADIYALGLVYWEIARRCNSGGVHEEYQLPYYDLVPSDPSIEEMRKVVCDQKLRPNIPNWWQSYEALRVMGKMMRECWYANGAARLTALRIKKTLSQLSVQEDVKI
Experimental: (§1) Also included in the kinase profile are four isoforms of PKC (δ, ε, η, θ) and eight isoforms of CAMKs (CAMKIα, δ, γ; CAMKIIα, β, δ, γ; CAMK4).
(§2) The global kinase profiling experiment was performed by Ambit Biosciences.

ERK3 = biological target: T2, ERK3 (Homo sapiens, UniProt Q16659)
T2 construct: purchased Ambit Biosciences (KINOMEscan)
T2 sequence (Q16659 whole entry): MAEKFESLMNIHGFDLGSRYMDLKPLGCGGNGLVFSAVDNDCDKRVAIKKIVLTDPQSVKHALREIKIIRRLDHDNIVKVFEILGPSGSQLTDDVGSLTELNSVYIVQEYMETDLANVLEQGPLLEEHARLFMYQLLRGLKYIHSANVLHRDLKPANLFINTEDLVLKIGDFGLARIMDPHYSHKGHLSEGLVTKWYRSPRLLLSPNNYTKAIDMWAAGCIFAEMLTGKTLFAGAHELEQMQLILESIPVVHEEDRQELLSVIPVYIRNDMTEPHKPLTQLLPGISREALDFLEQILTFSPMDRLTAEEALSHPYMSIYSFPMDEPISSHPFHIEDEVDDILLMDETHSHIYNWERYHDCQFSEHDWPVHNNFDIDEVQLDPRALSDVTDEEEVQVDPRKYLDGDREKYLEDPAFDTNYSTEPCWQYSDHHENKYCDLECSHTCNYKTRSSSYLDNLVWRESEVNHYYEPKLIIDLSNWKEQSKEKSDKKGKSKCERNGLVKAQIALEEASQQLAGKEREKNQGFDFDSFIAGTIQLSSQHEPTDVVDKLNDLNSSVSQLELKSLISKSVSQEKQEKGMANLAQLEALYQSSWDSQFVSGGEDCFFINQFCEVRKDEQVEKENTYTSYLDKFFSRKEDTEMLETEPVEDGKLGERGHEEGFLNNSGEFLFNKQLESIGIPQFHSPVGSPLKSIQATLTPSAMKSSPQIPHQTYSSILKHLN
Experimental: as §1, §2

ERK1 = biological target: T3, ERK1 (Homo sapiens, UniProt P27361)
T3 construct: purchased Ambit Biosciences (KINOMEscan)
T3 sequence (P27361 whole entry): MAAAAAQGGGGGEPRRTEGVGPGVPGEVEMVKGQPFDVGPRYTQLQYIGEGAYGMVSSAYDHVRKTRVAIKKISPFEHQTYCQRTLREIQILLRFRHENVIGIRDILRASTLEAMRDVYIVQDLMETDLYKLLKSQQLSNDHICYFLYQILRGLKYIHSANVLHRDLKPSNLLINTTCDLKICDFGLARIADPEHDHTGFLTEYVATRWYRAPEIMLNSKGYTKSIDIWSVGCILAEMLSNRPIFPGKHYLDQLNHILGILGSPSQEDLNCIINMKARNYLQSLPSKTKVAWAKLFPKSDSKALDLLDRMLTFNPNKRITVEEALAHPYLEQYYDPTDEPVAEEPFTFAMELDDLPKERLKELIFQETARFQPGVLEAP
Experimental: as §1, §2

PCTK1 = biological target: T4, PCTK1 (Homo sapiens, UniProt Q00536)
T4 construct: purchased Ambit Biosciences (KINOMEscan)
T4 sequence (Q00536 whole entry): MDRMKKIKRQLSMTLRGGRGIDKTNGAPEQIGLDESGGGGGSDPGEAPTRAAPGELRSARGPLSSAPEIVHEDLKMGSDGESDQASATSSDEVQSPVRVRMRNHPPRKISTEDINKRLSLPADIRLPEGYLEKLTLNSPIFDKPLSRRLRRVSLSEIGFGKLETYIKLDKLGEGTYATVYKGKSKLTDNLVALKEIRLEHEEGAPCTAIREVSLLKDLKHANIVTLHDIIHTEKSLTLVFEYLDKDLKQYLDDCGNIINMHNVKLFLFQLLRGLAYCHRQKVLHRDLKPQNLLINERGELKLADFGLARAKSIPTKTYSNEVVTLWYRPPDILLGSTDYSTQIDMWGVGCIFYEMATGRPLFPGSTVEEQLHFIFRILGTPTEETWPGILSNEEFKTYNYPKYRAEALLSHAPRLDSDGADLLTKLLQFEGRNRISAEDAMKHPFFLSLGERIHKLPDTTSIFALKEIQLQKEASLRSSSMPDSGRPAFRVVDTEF
Experimental: as §1, §2

PRKD2 = biological target: T5, PRKD2 (Homo sapiens, UniProt Q9BZL6)
T5 construct: purchased Ambit Biosciences (KINOMEscan)
T5 sequence (Q9BZL6 1-878): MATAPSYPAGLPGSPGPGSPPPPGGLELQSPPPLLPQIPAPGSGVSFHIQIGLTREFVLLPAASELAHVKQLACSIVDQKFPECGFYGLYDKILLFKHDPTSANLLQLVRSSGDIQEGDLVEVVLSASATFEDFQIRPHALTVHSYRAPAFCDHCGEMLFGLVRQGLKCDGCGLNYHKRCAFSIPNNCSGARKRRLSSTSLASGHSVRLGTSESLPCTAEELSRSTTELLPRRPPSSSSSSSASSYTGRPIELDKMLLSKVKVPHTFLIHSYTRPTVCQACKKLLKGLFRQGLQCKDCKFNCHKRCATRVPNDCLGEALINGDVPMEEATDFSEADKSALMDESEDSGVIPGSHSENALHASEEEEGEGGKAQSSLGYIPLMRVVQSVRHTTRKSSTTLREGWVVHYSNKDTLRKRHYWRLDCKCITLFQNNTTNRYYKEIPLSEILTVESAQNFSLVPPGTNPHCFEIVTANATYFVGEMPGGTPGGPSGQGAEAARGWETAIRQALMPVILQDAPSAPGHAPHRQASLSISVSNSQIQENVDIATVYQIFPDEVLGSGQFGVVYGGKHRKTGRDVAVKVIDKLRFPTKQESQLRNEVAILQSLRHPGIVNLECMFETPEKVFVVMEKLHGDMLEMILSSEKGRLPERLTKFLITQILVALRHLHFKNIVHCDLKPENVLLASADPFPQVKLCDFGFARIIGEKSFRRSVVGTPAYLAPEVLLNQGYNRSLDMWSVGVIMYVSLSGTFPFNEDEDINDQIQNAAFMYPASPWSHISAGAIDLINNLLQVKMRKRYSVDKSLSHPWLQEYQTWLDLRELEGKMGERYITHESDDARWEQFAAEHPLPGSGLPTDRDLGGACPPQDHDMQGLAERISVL
Experimental: as §1, §2

TNNI3K = biological target: T6, TNNI3K (Homo sapiens, UniProt Q59H18)
T6 construct: purchased Ambit Biosciences (KINOMEscan)
T6 sequence (Q59H18 1-835): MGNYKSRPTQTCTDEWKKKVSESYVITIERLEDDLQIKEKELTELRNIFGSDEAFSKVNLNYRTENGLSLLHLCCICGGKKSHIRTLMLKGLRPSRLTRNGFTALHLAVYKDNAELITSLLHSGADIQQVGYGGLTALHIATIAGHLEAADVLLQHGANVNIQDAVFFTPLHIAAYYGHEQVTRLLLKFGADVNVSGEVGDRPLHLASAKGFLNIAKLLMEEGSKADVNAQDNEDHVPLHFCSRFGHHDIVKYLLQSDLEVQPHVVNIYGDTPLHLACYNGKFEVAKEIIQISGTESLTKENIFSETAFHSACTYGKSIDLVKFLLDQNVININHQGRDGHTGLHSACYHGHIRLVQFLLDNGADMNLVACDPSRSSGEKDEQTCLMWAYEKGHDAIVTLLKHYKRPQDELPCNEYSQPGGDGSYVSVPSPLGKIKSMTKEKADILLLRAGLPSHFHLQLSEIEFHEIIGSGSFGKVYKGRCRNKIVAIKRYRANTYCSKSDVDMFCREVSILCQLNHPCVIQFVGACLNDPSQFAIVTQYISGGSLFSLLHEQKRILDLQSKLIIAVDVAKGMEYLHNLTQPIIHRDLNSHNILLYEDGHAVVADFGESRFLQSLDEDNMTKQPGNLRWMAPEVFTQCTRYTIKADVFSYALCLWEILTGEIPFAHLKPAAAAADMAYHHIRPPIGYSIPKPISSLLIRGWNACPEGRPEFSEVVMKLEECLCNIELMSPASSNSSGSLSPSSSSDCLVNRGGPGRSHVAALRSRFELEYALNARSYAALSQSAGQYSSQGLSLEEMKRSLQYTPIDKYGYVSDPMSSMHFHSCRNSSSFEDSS
Experimental: as §1, §2

## Fc1ccc(-c2c(-c3ccncc3)[nH]c3nccnc23)cc1 [Compound 122]
ACVR1B; ACVR1B, 10 µM, read-out: % Competition
  inhibition at 10 µM: 91%
ERK3; ERK3, 10 µM, read-out: % Competition
  inhibition at 10 µM: 98%
ERK1; ERK1, 10 µM, read-out: % Competition
  inhibition at 10 µM: 80%
PCTK1; PCTK1, 10 µM, read-out: % Competition
  inhibition at 10 µM: 100%
PRKD2; PRKD2 (PKD2), 10 µM, read-out: % Competition
  inhibition at 10 µM: 98%
TNNI3K; TNNI3K, 10 µM, read-out: % Competition
  inhibition at 10 µM: 67%

## CC(O)CNc1cc(-c2[nH]c3cccnc3c2-c2ccc(F)cc2)ccn1 (stereo not drawn) [Compound 140]
ACVR1B; read-out: % Competition
  inhibition at 10 µM: < 50%
ERK3; read-out: % Competition
  inhibition at 10 µM: < 50%
ERK1; read-out: % Competition
  inhibition at 10 µM: < 50%
PCTK1; read-out: % Competition
  inhibition at 10 µM: < 50%
PRKD2; read-out: % Competition
  inhibition at 10 µM: 99%
TNNI3K; read-out: % Competition
  inhibition at 10 µM: < 50%

## Fc1ccc(-c2c(-c3ccncc3)[nH]c3nccnc23)cc1 [RO1155697-000-005]
ACVR1B; ACVR1B, compound concentration 10 uM, read-out: Percent Competition
  inhibition at 10 µM: 91%
ERK3; ERK3, compound concentration 10 uM, read-out: Percent Competition
  inhibition at 10 µM: 98%
ERK1; ERK1, compound concentration 10 uM, read-out: Percent Competition
  inhibition at 10 µM: 80%
PCTK1; PCTK1, compound concentration 10 uM, read-out: Percent Competition
  inhibition at 10 µM: 100%
PRKD2; PRKD2, compound concentration 10 uM, read-out: Percent Competition
  inhibition at 10 µM: 98%
TNNI3K; TNNI3K, compound concentration 10 uM, read-out: Percent Competition
  inhibition at 10 µM: 67%

From paper PMC3445516 (PLoS ONE, 2012)
